Assay results as given in EP0163537A1, “1-Propanone derivatives and pharmaceutical compositions containing same” (priority 1984, dated 1985).
Where a name gives a salt, the structure may show the parent alone. Read-outs that look alike come from different tables or passages of the source.

Experiments:
Format in all cases: in vivo
[1] = test system: Male mice of ddY strain; assay: Test 3 Muscle relaxant activity (traction test, method of Courvoisier et al.); details: 15 minutes after administration, groups of ten
Procedure: Male mice of ddY strain, weighing 30 to 37 g, were used in groups of ten. The test compounds were dissolved in physiological saline and administered intraperitoneally in a dose of 50 or 75 mg/kg. […] This method involves a traction test in which the animal is hung by its forelimbs on a horizontal metal rod (2 mm in diameter) placed 20 cm above the floor and examined as to whether it can put its hindlimb on the rod or not.
Specifically, 15 minutes after administration of a test compound, the mouse was hung on the rod by its forelimbs. […] It had been confirmed in preliminary tests that, under normal conditions, all the mice could put their hindlimb on the rod within 5 seconds.

[2] = test system: Male mice of ddY strain; assay: Test 1 Anti-nicotine activity (inhibition of nicotine-induced convulsive death); details: 200 mg/kg po, nicotine 2 mg/kg iv after 1 h, observed 1 h; for responders at 200 mg/kg: Mus musculus
Procedure: Male mice of ddY strain, weighing 28 to 33 g, were used in groups of eight or twelve. The test compounds were dissolved in distilled water and administered orally in a dose of 200 mg/kg. After an hour, nicotine was intravenously administered in a dose of 2 mg/kg.

[3] = test system: Male mice of ddY strain; assay: Test 2 Anti-tremorine activity (inhibition of tremorine-induced tremor); details: for responders at 50 mg/kg: Mus musculus, po, read-out: Inhibition of tremor (%)
Procedure: Male mice of ddY strain, weighing 28 to 32 g, were used in groups of eight or ten. The test compounds were dissolved in distilled water and administered orally in a dose of 50 mg/kg. After 30 minutes, tremorine dihydrochloride was subcutaneously administered in a dose of 20 mg/kg. Then, the occurrence of tremor was observed after the lapse of 30 and 60 minutes.

[4] = Test 5 Acute toxicity (LD50, method of Behrens and Kärbar); details: mouse, in vivo, po, Table-5a, mice, observed for 7 days
Procedure: Male mice of ddY strain, weighing 25 to 30 g, were used in groups of five. The test compounds were dissolved in distilled water and administered orally in various doses. […] Then, the LDso was calculated according to the method of Behrens and Kärbar.

[5] = po, 1 h, Table-2a, 8 animals used
[6] = 0.5 h, Table-3a, 50 mg/kg po, After 30 min. from tremorine 20 mg/kg sc, 8 animals used
[7] = 1 h, Table-3a, 50 mg/kg po, After 60 min. from tremorine 20 mg/kg sc, 8 animals used
[8] = Table-3d, 50 mg/kg po, After 30 min., 10 animals used
[9] = Table-3d, 50 mg/kg po, After 60 min., 10 animals used

CC(CN1CCCCCC1)C(=O)c1ccc(C2CC2)cc1.Cl (stereo not drawn) [Example 9, 1-(4-Cyclopropylphenyl)-2-methyl-3-(hexahydro-1H-azepin-1-yl)-1-propanone hydrochloride]
Number of animals exhibiting muscle relaxation ([1]; Table-4a, 50 mg/kg ip): 7
responders at 200 mg/kg [2, 5]: 75%
Number of surviving animals ([2]; Table-2a, 8 animals used): 6
responders at 50 mg/kg [3, 6]: 100%
responders at 50 mg/kg [3, 7]: 87.5%
LD50 at 168 h [4]: 655 mg/kg

CC(CN1CCCC1)C(=O)c1ccc2c(c1)OCO2 (stereo not drawn) [Example 60, 2-Methyl-1-(3,4-methylenedioxyphenyl)-3-(1-pyrrolidi-nyl)-1-propanone hydrochloride]
responders at 200 mg/kg ([2]; Table-2b, 12 animals used): 58.3%
Number of surviving animals ([2]; Table-2b, 12 animals used): 7

CC(CN1CCCCC1)C(=O)c1ccc(C2CCCC2)cc1.Cl (stereo not drawn) [Example 41, 1-(4-Cyclopentylphenyl)-2-methyl-3-piperidino-1-propanone hydrochloride]
responders at 200 mg/kg [2, 5]: 37.5%
Number of surviving animals ([2]; Table-2a, 8 animals used): 3
responders at 50 mg/kg [3, 6]: 75%
responders at 50 mg/kg [3, 7]: 12.5%

1-(2,3-Dihydro-5-benzofuranyl)-2-ethyl-3-piperidino-1-propanone hydrochloride [Example 89]
Muscle relaxation rate (%) ([1]; Table-4d, 75 mg/kg ip): 50%
Number of animals exhibiting muscle relaxation ([1]; Table-4d, 75 mg/kg ip): 5
Inhibition of death (%) ([2]; Table-2c, 12 animals used): 66.7%
Number of surviving animals ([2]; Table-2c, 12 animals used): 8
Inhibition of tremor (%) [3, 8]: 100%
Number of animals exhibiting no tremor [3, 8]: 10
Inhibition of tremor (%) [3, 9]: 100%
Number of animals exhibiting no tremor [3, 9]: 10

CC(CN1CCCCC1)C(=O)c1ccc(C2CCCCC2)cc1.Cl (stereo not drawn) [Example 48, 1-(4-Cyclohexylphenyl)-2-methyl-3-piperidino-1-propanone hydrochloride]
responders at 200 mg/kg [2, 5]: 62.5%
Number of surviving animals ([2]; Table-2a, 8 animals used): 5
responders at 50 mg/kg [3, 6]: 100%
responders at 50 mg/kg [3, 7]: 37.5%

CCCC(CN1CCCCCC1)C(=O)c1ccc2c(c1)CCO2.Cl (stereo not drawn) [Example 100, 1-(2,3-Dihydro-5-benzofuranyl)-2-n-propyl-3-(hexahydro-1H-azepin-1-yl)-1-propanone hydrochloride]
responders at 200 mg/kg ([2]; Table-2c, 12 animals used): 0%
Number of surviving animals ([2]; Table-2c, 12 animals used): 0
responders at 50 mg/kg ([3]; 0.5 h): 100%
responders at 50 mg/kg ([3]; 1 h): 100%
Number of animals exhibiting no tremor [3, 8]: 10
Number of animals exhibiting no tremor [3, 9]: 10

CCCC(CN1CCCCC1)C(=O)c1ccc2c(c1)CCO2.Cl (stereo not drawn) [Example 99, 1-(2,3-Dihydro-5-benzofuranyl)-2-n-propyl-3-piperidino-1-propanone hydrochloride]
Number of animals exhibiting muscle relaxation ([1]; Table-4d, 75 mg/kg ip): 2
responders at 200 mg/kg ([2]; po, 1 h, Table-2c, 12 animals used): 25%
Number of surviving animals ([2]; Table-2c, 12 animals used): 3
responders at 50 mg/kg ([3]; 0.5 h, Table-3d, 50 mg/kg po, After 30 min., 10 animals used): 100%
responders at 50 mg/kg ([3]; 1 h, Table-3d, 50 mg/kg po, After 60 min., 10 animals used): 90%

CCC(CN1CCCC1)C(=O)c1ccc2c(c1)OCO2 (stereo not drawn) [Example 56, 2-Ethyl-1-(3,4-methylenedioxyphenyl)-3-(1-pyrrolidi-nyl)-1-propanone hydrochloride]
responders at 200 mg/kg ([2]; Table-2b, 12 animals used): 41.7%
Number of surviving animals ([2]; Table-2b, 12 animals used): 5

Cl.O=C(c1ccc(C2CC2)cc1)C(CN1CCCCC1)C1CCCC1 (stereo not drawn) [Example 37, 2-Cyclopentyl-1-(4-cyclopropylphenyl)-3-piperidino-1-propanone hydrochloride]
responders at 50 mg/kg ([3]; 0.5 h, Table-3b, 50 mg/kg po, After 30 min., 10 animals used): 80%
responders at 50 mg/kg ([3]; 1 h, Table-3b, 50 mg/kg po, After 60 min., 10 animals used): 80%
Number of animals exhibiting no tremor ([3]; Table-3b, 50 mg/kg po, After 30 min., 10 animals used): 8
Number of animals exhibiting no tremor ([3]; Table-3b, 50 mg/kg po, After 60 min., 10 animals used): 8

CCCC(CN1CCCC1)C(=O)c1ccc2c(c1)CCO2.Cl (stereo not drawn) [Example 98, 1-(2,3-Dihydro-5-benzofuranyl)-2-n-propyl-3-(1-pyrrolidinyl)-1-propanone hydrochloride]
responders at 200 mg/kg ([2]; Table-2c, 12 animals used): 0%
Number of surviving animals ([2]; Table-2c, 12 animals used): 0
responders at 50 mg/kg ([3]; 0.5 h): 100%
responders at 50 mg/kg ([3]; 1 h): 90%
